Test results: PubChem BioAssay AID1259407 (Chemical Carcinogenesis Research Information System (CCRIS), 2018)
Active and inactive are the calls of the source. The rule behind the calls is not given here.

System: CCRIS mutagenicity, Ames/micronucleus/aberration tests
Assay: CCRIS mutagenicity studies
[1] = Test System: AMES SALMONELLA TYPHIMURIUM, Strain/Indicator: TA98, Metabolic Activation: NONE, Method: PREINCUBATION
[2] = Test System: AMES SALMONELLA TYPHIMURIUM, Strain/Indicator: TA100, Metabolic Activation: NONE, Method: PREINCUBATION
[3] = Test System: AMES SALMONELLA TYPHIMURIUM, Strain/Indicator: TA98, Metabolic Activation: NONE, Method: STANDARD PLATE
[4] = Test System: AMES SALMONELLA TYPHIMURIUM, Strain/Indicator: TA100, Metabolic Activation: NONE, Method: STANDARD PLATE

Compound: Cc1ccc(N)cc1C
- mutagenic call (Test System: AMES SALMONELLA TYPHIMURIUM, Strain/Indicator: TA97, Metabolic Activation: HAMSTER, LIVER, S-9, AROCLOR 1254 (10%), Method: PREINCUBATION): inactive; negative
- mutagenic call (Test System: AMES SALMONELLA TYPHIMURIUM, Strain/Indicator: TA97, Metabolic Activation: NONE, Method: PREINCUBATION): inactive; negative
- mutagenic call (Test System: AMES SALMONELLA TYPHIMURIUM, Strain/Indicator: TA97, Metabolic Activation: RAT, LIVER, S-9, AROCLOR 1254 (10%), Method: PREINCUBATION): inactive; negative
- mutagenic call (Test System: AMES SALMONELLA TYPHIMURIUM, Strain/Indicator: TA98, Metabolic Activation: HAMSTER, LIVER, S-9, AROCLOR 1254 (10%), Method: PREINCUBATION): inactive; negative
- mutagenic call [1]: inactive; negative
- mutagenic call (Test System: AMES SALMONELLA TYPHIMURIUM, Strain/Indicator: TA98, Metabolic Activation: RAT LIVER S-9, PHENOBARBITAL AND BETA-NAPHTHOFLAVONE, Method: PREINCUBATION): inactive; negative
- mutagenic call (Test System: AMES SALMONELLA TYPHIMURIUM, Strain/Indicator: TA98, Metabolic Activation: RAT, LIVER, S-9, AROCLOR 1254 (10%), Method: PREINCUBATION): inactive; negative
- mutagenic call (Test System: AMES SALMONELLA TYPHIMURIUM, Strain/Indicator: TA100, Metabolic Activation: HAMSTER, LIVER, S-9, AROCLOR 1254 (10%), Method: PREINCUBATION): active; positive
- mutagenic call [2]: inactive; negative
- mutagenic call (Test System: AMES SALMONELLA TYPHIMURIUM, Strain/Indicator: TA100, Metabolic Activation: RAT LIVER S-9, PHENOBARBITAL AND BETA-NAPHTHOFLAVONE, Method: PREINCUBATION): inactive; negative
- mutagenic call (Test System: AMES SALMONELLA TYPHIMURIUM, Strain/Indicator: TA100, Metabolic Activation: RAT, LIVER, S-9, AROCLOR 1254 (10%), Method: PREINCUBATION): inactive; negative
- mutagenic call (Test System: AMES SALMONELLA TYPHIMURIUM, Strain/Indicator: TA1535, Metabolic Activation: HAMSTER, LIVER, S-9, AROCLOR 1254 (10%), Method: PREINCUBATION): inactive; negative
- mutagenic call (Test System: AMES SALMONELLA TYPHIMURIUM, Strain/Indicator: TA1535, Metabolic Activation: NONE, Method: PREINCUBATION): inactive; negative
- mutagenic call (Test System: AMES SALMONELLA TYPHIMURIUM, Strain/Indicator: TA1535, Metabolic Activation: RAT LIVER S-9, PHENOBARBITAL AND BETA-NAPHTHOFLAVONE, Method: PREINCUBATION): inactive; negative
- mutagenic call (Test System: AMES SALMONELLA TYPHIMURIUM, Strain/Indicator: TA1535, Metabolic Activation: RAT, LIVER, S-9, AROCLOR 1254 (10%), Method: PREINCUBATION): inactive; negative
- mutagenic call (Test System: AMES SALMONELLA TYPHIMURIUM, Strain/Indicator: TA1537, Metabolic Activation: HAMSTER, LIVER, S-9, AROCLOR 1254 (10%), Method: PREINCUBATION): inactive; negative
- mutagenic call (Test System: AMES SALMONELLA TYPHIMURIUM, Strain/Indicator: TA1537, Metabolic Activation: NONE, Method: PREINCUBATION): inactive; negative
- mutagenic call (Test System: AMES SALMONELLA TYPHIMURIUM, Strain/Indicator: TA1537, Metabolic Activation: RAT LIVER S-9, PHENOBARBITAL AND BETA-NAPHTHOFLAVONE, Method: PREINCUBATION): inactive; negative
- mutagenic call (Test System: AMES SALMONELLA TYPHIMURIUM, Strain/Indicator: TA1538, Metabolic Activation: NONE, Method: PREINCUBATION): inactive; negative
- mutagenic call (Test System: AMES SALMONELLA TYPHIMURIUM, Strain/Indicator: TA1538, Metabolic Activation: RAT LIVER S-9, PHENOBARBITAL AND BETA-NAPHTHOFLAVONE, Method: PREINCUBATION): inactive; negative
- mutagenic call (Test System: E.COLI, Strain/Indicator: WP2UVRA, Metabolic Activation: NONE, Method: PREINCUBATION): inactive; negative
- mutagenic call (Test System: E.COLI, Strain/Indicator: WP2UVRA, Metabolic Activation: RAT LIVER S-9, PHENOBARBITAL AND BETA-NAPHTHOFLAVONE, Method: PREINCUBATION): inactive; negative

Compound: Nc1cnc2ccccc2c1
- mutagenic call [1]: inactive; negative
- mutagenic call (Test System: AMES SALMONELLA TYPHIMURIUM, Strain/Indicator: TA98, Metabolic Activation: RAT, LIVER, S-9, KANECHLOR 500 OR PHENOBARBITAL AND BETA-NAPHTHOFLAVONE, Method: PREINCUBATION): active; positive
- mutagenic call [2]: inactive; negative
- mutagenic call (Test System: AMES SALMONELLA TYPHIMURIUM, Strain/Indicator: TA100, Metabolic Activation: RAT, LIVER, S-9, KANECHLOR 500 OR PHENOBARBITAL AND BETA-NAPHTHOFLAVONE, Method: PREINCUBATION): active; positive

Compound: Cc1c2ccccc2cc2c3c(ccc12)C(O)C(O)[C@@H]1O[C@@H]31 (some centres not stated)
- mutagenic call [1]: active; positive
- mutagenic call [2]: active; positive
- mutagenic call (Test System: CHINESE HAMSTER V-79, Strain/Indicator: V-79/6-THIOGUANINE, Metabolic Activation: NONE): active; positive

Compound: CC1(C)C[C@H]2C=C(C=O)[C@]3(C=O)C[C@]3(C)[C@H]2C1
- mutagenic call [3]: active; positive
- mutagenic call [4]: active; positive
- mutagenic call (Test System: AMES SALMONELLA TYPHIMURIUM, Strain/Indicator: TA2637, Metabolic Activation: NONE, Method: STANDARD PLATE): active; positive
- mutagenic call (Test System: CHINESE HAMSTER V-79, Strain/Indicator: V-79/6-THIOGUANINE (HGPRT), Metabolic Activation: NONE): active; positive

Compound: Oc1ccc(ON2P(Oc3ccc(O)cc3)N=P(Oc3ccc(O)cc3)(Oc3ccc(O)cc3)N(Oc3ccc(O)cc3)P2Oc2ccc(O)cc2)cc1 (configuration not stated)
- mutagenic call [3]: inactive; negative
- mutagenic call (Test System: AMES SALMONELLA TYPHIMURIUM, Strain/Indicator: TA98, Metabolic Activation: RAT, LIVER, S-9, AROCLOR 1254, Method: STANDARD PLATE): inactive; negative
- mutagenic call [4]: inactive; negative
- mutagenic call (Test System: AMES SALMONELLA TYPHIMURIUM, Strain/Indicator: TA100, Metabolic Activation: RAT, LIVER, S-9, AROCLOR 1254, Method: STANDARD PLATE): inactive; negative
